Results: ChEMBL document CHEMBL1909046, “DrugMatrix in vitro pharmacology data”

Legend:
Endothelin-1 receptor = biological target: T1, Endothelin-1 receptor (Homo sapiens, UniProt P25101); type: cell membranes, Membrane; conditions: cho-k1; also: in other assays of this panel Not Active means under 50% inhibition at 10 µM
T1 sequence (P25101 whole entry): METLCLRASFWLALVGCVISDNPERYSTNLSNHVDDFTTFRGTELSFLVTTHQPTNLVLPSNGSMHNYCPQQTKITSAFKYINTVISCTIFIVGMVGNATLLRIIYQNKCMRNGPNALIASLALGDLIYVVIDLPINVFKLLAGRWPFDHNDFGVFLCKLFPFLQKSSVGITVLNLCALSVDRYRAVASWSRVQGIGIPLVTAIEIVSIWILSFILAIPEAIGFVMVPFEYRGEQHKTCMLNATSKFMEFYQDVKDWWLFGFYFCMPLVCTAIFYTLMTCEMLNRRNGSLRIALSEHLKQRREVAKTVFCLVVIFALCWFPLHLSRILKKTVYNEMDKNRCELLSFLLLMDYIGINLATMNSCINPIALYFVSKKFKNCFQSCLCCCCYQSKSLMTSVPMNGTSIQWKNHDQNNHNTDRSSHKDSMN

[1] = biological target: T2, 3-hydroxy-3-methylglutaryl-coenzyme A reductase (Homo sapiens, UniProt P04035); design: species or system Escherichia coli;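 also: enzyme inhibition assay of HMG-CoA reductase using radiolabeled [14C]HMG-CoA as substrate; in other assays of this panel Not Active means under 50% inhibition at 10 µM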
T2 sequence (P04035 whole entry): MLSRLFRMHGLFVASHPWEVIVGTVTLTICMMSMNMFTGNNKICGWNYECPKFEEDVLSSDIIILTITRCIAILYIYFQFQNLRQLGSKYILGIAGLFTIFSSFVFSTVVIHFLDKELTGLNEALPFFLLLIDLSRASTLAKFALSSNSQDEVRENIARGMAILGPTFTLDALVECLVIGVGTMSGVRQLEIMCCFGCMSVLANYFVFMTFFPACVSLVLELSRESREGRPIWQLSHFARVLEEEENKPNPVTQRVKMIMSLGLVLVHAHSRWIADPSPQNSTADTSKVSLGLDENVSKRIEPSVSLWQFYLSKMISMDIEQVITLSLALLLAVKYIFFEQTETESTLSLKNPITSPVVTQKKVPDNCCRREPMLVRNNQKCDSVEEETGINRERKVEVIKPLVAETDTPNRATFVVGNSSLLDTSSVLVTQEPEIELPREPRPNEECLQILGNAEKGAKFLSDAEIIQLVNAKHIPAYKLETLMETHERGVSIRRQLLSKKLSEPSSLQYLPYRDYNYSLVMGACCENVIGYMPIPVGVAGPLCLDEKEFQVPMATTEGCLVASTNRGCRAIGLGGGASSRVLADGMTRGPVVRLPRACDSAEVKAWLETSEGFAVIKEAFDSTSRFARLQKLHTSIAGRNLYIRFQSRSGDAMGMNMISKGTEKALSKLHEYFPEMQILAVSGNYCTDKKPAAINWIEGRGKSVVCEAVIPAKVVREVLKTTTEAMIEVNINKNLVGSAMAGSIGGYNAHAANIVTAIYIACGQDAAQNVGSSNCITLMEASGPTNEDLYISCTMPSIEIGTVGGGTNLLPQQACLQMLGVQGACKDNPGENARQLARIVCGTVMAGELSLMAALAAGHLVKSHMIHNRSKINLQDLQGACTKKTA

[2] = DRUGMATRIX: Imidazoline I2, Central radioligand binding (ligand: [3H] Idazoxan); type: cell membranes, Rattus norvegicus, Wistar, Cerebral cortex, Membrane; conditions: Not Active = under 50% inhibition at 10 µM
[3] = DRUGMATRIX: Phosphodiesterase PDE3 enzyme inhibition (substrate: [3H]cAMP + cAMP); type: tissue-based, Homo sapiens; conditions: platelet; Not Active = under 50% inhibition at 10 µM
Progesterone receptor = biological target: T3, Progesterone receptor (Bos taurus, UniProt Q690N0); experiment: DRUGMATRIX: Progesterone radioligand binding (ligand: [3H] R-5020); type: tissue-based, Uterus; conditions: Not Active = under 50% inhibition at 10 µM
T3 sequence (Q690N0 whole entry): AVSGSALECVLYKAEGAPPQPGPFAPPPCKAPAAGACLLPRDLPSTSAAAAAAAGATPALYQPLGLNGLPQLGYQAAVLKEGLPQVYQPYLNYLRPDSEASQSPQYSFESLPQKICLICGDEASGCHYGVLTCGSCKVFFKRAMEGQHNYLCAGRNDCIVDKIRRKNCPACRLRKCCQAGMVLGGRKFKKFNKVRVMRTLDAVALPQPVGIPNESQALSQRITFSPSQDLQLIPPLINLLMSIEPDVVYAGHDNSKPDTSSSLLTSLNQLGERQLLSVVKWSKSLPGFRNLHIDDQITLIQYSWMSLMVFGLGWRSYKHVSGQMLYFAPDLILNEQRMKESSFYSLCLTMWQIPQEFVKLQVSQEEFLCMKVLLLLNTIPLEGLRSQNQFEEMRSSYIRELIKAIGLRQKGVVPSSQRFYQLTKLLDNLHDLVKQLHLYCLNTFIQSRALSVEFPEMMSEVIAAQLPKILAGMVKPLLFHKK

Cytochrome P450 2C19 = Cytochrome P450 2C19 (Homo sapiens, UniProt P33261); conditions: bti-tn-5b1-4; also: in other assays of this panel Not Active means under 50% inhibition at 10 µM
Cytochrome P450 2C19, sequence (P33261 whole entry): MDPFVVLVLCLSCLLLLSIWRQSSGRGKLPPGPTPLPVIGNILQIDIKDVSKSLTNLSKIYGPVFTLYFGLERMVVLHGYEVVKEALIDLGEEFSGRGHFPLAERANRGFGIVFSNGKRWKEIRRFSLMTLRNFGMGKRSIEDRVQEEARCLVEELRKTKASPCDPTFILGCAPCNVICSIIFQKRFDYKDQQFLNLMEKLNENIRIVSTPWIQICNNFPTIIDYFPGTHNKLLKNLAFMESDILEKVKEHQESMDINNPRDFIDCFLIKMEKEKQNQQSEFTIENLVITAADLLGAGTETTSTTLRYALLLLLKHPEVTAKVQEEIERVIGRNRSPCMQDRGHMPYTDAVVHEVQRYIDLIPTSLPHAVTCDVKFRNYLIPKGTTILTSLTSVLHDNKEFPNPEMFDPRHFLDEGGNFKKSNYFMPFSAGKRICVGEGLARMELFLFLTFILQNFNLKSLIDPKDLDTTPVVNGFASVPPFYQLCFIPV

Estrogen receptor beta = Estrogen receptor beta (Homo sapiens, UniProt Q92731); conditions: sf9; also: in other assays of this panel Not Active means under 50% inhibition at 10 µM
Estrogen receptor beta, sequence (Q92731 whole entry): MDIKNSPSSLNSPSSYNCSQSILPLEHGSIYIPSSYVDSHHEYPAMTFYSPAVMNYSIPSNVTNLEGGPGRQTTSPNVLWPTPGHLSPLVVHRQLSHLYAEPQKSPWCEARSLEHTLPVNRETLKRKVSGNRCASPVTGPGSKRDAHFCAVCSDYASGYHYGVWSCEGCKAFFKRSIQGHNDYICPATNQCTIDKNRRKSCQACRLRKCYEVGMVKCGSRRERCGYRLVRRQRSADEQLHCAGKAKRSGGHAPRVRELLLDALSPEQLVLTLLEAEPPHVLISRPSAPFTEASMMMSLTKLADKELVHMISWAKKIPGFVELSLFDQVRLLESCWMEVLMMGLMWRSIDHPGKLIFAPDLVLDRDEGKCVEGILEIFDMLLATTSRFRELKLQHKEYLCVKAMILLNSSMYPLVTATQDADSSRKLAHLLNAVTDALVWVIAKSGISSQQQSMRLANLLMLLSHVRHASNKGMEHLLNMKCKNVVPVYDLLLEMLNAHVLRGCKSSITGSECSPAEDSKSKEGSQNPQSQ

C=CCc1ccc2c(c1)OCO2 [SAFROLE]
Not Active: IC50 (Endothelin-1 receptor) | IC50 [1] | IC50 [2] | Ki [2] | IC50 [3] | Ki [3] | IC50 (Progesterone receptor) | IC50 (Cytochrome P450 2C19) | Ki (Cytochrome P450 2C19) | IC50 (Estrogen receptor beta)

CO[C@@]12[C@H](COC(N)=O)C3=C(C(=O)C(C)=C(N)C3=O)N1C[C@@H]1N[C@@H]12 [MITOMYCIN]
Not Active: IC50 (Endothelin-1 receptor) | IC50 [1] | IC50 [2] | Ki [2] | IC50 [3] | Ki [3] | IC50 (Progesterone receptor) | IC50 (Cytochrome P450 2C19) | Ki (Cytochrome P450 2C19) | IC50 (Estrogen receptor beta)

O=C1CC[C@@]2(O)[C@H]3Cc4ccc(O)c5c4[C@@]2(CCN3CC2CC2)[C@H]1O5 [NALTREXONE]
Not Active: IC50 (Endothelin-1 receptor) | IC50 [1] | IC50 [2] | Ki [2] | IC50 [3] | Ki [3] | IC50 (Progesterone receptor) | IC50 (Cytochrome P450 2C19) | Ki (Cytochrome P450 2C19) | IC50 (Estrogen receptor beta)

Cc1cn([C@H]2C=C[C@@H](CO)O2)c(=O)[nH]c1=O [STAVUDINE]
Not Active: IC50 (Endothelin-1 receptor) | IC50 [1] | IC50 [2] | Ki [2] | IC50 [3] | Ki [3] | IC50 (Progesterone receptor) | IC50 (Cytochrome P450 2C19) | Ki (Cytochrome P450 2C19) | IC50 (Estrogen receptor beta)

Cc1cnc(NC(=O)C2=C(O)c3ccccc3S(=O)(=O)N2C)s1 [MELOXICAM]
Not Active: IC50 (Endothelin-1 receptor) | IC50 [1] | IC50 [2] | Ki [2] | IC50 [3] | Ki [3] | IC50 (Progesterone receptor) | IC50 (Cytochrome P450 2C19) | Ki (Cytochrome P450 2C19) | IC50 (Estrogen receptor beta)

CC(N)C12CC3CC(CC(C3)C1)C2 (stereo not given) [RIMANTADINE]
Not Active: IC50 (Endothelin-1 receptor) | IC50 [1] | IC50 [2] | Ki [2] | IC50 [3] | Ki [3] | IC50 (Progesterone receptor) | IC50 (Cytochrome P450 2C19) | Ki (Cytochrome P450 2C19) | IC50 (Estrogen receptor beta)
